Measurements from patent publication US20250206732A1, “COMPOUNDS AND METHODS FOR THE TARGETED DEGRADATION OF KRAS” (Arvinas Operations, Inc., priority 2022, published 2025).

Target: T1, AsPC-1 HiBiT-KRASG12D (Homo sapiens, UniProt P01116, G12D)
T1 construct: insert the HiBiT tag onto the N-terminus of one or more of the endogenous KRAS alleles; endogenous in cells; host or cells: AsPC-1 (ATCC CRL-1682), CRISPR-Cas9 knock-in clone, one tagged allele
Experiment: HiBiT degradation assay (G12D), AsPC-1 HiBiT-KRASG12D cells
Assay type: cell-based
Details: 24 hours treatment; for Dmax: ASPC1, AsPC-1 HiBiT-KRASG12D cells, maximum degradation observed; for DC50: AsPC-1 HiBiT-KRASG12D cells, HiBiT luminescence
Method in brief: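 AsPC-1 cells carried a CRISPR knock-in of an N-terminal HiBiT tag on endogenous KRAS G12D. After 24 h compound treatment at 37 °C (triplicate), viability was read by alamar blue (4 h, fluorescence, normalized to DMSO). HiBiT-KRAS levels were then measured by Nano-Glo HiBiT lytic luminescence after 45 min at room temperature.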

T1 sequence (P01116 1-188 isoform P01116-2 G12D): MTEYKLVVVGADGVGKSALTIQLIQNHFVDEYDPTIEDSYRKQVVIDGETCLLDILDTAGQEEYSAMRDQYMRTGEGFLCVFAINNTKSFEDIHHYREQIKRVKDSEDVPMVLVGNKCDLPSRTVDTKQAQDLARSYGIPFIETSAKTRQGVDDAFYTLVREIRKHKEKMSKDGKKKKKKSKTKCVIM

In the case of `C#Cc1c(F)ccc2cc(O)cc(-c3ncc4c(N5CC6CCC(C5)N6)nc(OC[C@]56CCCN5[C@H](COc5cc([C@H](C(=O)N7C[C@H](O)C[C@H]7C(=O)N[C@@H](C)c7ccc(-c8scnc8C)cc7)C(C)C)on5)CC6)nc4c3F)c12` [Compound 311, (2S,4R)-1-[(2R)-2-[3-[[(3S,8R)-8-[[4-(3,8-diazabicyclo[3.2.1]octan-3-yl)-7-(8-ethynyl-7-fluoro-3-hydroxy-1-naphthyl)-8-fluoro-pyrido[4,3-d]pyrimidin-2-yl]oxymethyl]-1,2,3,5,6,7-hexahydropyrrolizin-3-yl]methoxy]isoxazol-5-yl]-3-methyl-butanoyl]-4-hydroxy-N-[(1S)-1-[4-(4-methylthiazol-5-yl)phenyl]ethyl]pyrrolidine-2-carboxamide], the Dmax was 80 to 100% and the DC50 was < 600 nM.

For `CCc1cccc2cc(O)cc(-c3ncc4c(N5CC6CCC(C5)N6)nc(OCCN5C[C@@H]6CN(c7cc([C@H](C(=O)N8C[C@H](O)C[C@H]8C(=O)N[C@@H](C)c8ccc(-c9scnc9C)cc8)C(C)C)on7)C[C@H]6C5)nc4c3F)c12` (relative stereo) [Compound 77, (2S,4R)-1-[(2R*)-2-{3-[(3aR,6aR)-5-{2-[(4-{3,8-diazabicyclo[3.2.1]octan-3-yl}-7-(8-ethyl-3-hydroxynaphthalen-1-yl)-8-fluoropyrido[4,3-d]pyrimidin-2-yl)oxy]ethyl}-octahydropyrrolo[3,4-c]pyrrol-2-yl]-1,2-oxazol-5-yl}-3-methylbutanoyl]-4-hydroxy-N-[(1S)-1-[4-(4-methyl-1,3-thiazol-5-yl)phenyl]ethyl]pyrrolidine-2-carboxamide], the Dmax was 80 to 100% and the DC50 was < 600 nM.

In the case of `CCc1cccc2cc(O)cc(-c3ncc4c(N5CC6CCC(C5)N6)nc(OC[C@]56CCCN5[C@@H](COC(=O)NCc5cc([C@@H](C(=O)N7C[C@H](O)C[C@H]7C(=O)N[C@@H](C)c7ccc(-c8scnc8C)cc7)C(C)C)on5)CC6)nc4c3F)c12` [Compound 103, [(3R,7aR)-7a-{[(4-{3,8-diazabicyclo[3.2.1]octan-3-yl}-7-(8-ethyl-3-hydroxynaphthalen-1-yl)-8-fluoropyrido[4,3-d]pyrimidin-2-yl)oxy]methyl}-hexahydro-1H-pyrrolizin-3-yl]methyl N-({5-[(2S)-1-[(2S,4R)-4-hydroxy-2-{[(1S)-1-[4-(4-methyl-1,3-thiazol-5-yl)phenyl]ethyl]carbamoyl}pyrrolidin-1-yl]-3-methyl-1-oxobutan-2-yl]-1,2-oxazol-3-yl}methyl) carbamate], the Dmax was 20 to 60% and the DC50 was 1000 to 3000 nM.

`Cc1ncsc1-c1ccc([C@H](C)NC(=O)[C@@H]2C[C@@H](O)CN2C(=O)[C@@H](c2cc(N3CCN(C(=O)OC[C@@H]4CC[C@@]5(COc6nc(N7CC8CCC(C7)N8)c7cc(Cl)c(-c8cc(O)cc9ccccc89)c(F)c7n6)CCCN45)CC3)no2)C(C)C)cc1` (relative stereo) [Compound 330, [(3R,8S)-8-[[6-chloro-4-(3,8-diazabicyclo[3.2.1]octan-3-yl)-8-fluoro-7-(3-hydroxy-1-naphthyl)quinazolin-2-yl]oxymethyl]-1,2,3,5,6,7-hexahydropyrrolizin-3-yl]methyl 4-[5-[(1R)-1-[(2S,4R)-4-hydroxy-2-[[(1S)-1-[4-(4-methylthiazol-5-yl)phenyl]ethyl]carbamoyl]pyrrolidine-1-carbonyl]-2-methyl-propyl]isoxazol-3-yl]piperazine-1-carboxylate] was tested, and the Dmax was 60 to 80% and the DC50 was < 600 nM.

For `CCc1cccc2cccc(-c3ncc4c(N5CC6CCC(C5)N6)nc(OC[C@@H]5CC[C@@H](COC(=O)N6CC(Oc7cc([C@H](C(=O)N8C[C@H](O)C[C@H]8C(=O)N[C@@H](C)c8ccc(-c9scnc9C)cc8)C(C)C)on7)C6)N5C)nc4c3F)c12` [Compound 223, [(2S,5S)-5-{[(4-{3,8-diazabicyclo[3.2.1]octan-3-yl}-7-(8-ethylnaphthalen-1-yl)-8-fluoropyrido[4,3-d]pyrimidin-2-yl)oxy]methyl}-1-methylpyrrolidin-2-yl]methyl 3-({5-[(2R)-1-[(2S,4R)-4-hydroxy-2-{[(1S)-1-[4-(4-methyl-1,3-thiazol-5-yl)phenyl]ethyl]carbamoyl}pyrrolidin-1-yl]-3-methyl-1-oxobutan-2-yl]-1,2-oxazol-3-yl}oxy)azetidine-1-carboxylate], the Dmax was 80 to 100% and the DC50 was < 600 nM.

`C#Cc1c(F)ccc2cc(O)cc(-c3ncc4c(N5CC6CCC(C5)N6)nc(OCCN5CCC(CC6CCN(c7cc([C@H](C(=O)N8C[C@H](O)C[C@H]8C(=O)N[C@@H](C)c8ccc(-c9ccnn9C)cc8)C(C)C)on7)CC6)CC5)nc4c3F)c12` [Compound 168, (2S,4R)-1-[(2R)-2-(3-{4-[(1-{2-[(4-{3,8-diazabicyclo[3.2.1]octan-3-yl}-7-(8-ethynyl-7-fluoro-3-hydroxynaphthalen-1-yl)-8-fluoropyrido[4,3-d]pyrimidin-2-yl)oxy]ethyl}piperidin-4-yl)methyl]piperidin-1-yl}-1,2-oxazol-5-yl)-3-methylbutanoyl]-4-hydroxy-N-[(1S)-1-[4-(1-methyl-1H-pyrazol-5-yl)phenyl]ethyl]pyrrolidine-2-carboxamide] was tested, and the Dmax was 80 to 100% and the DC50 was < 600 nM.

For `C#Cc1c(F)ccc2cccc(-c3ncc4c(N5CC6CCC(C5)N6)nc(OC[C@]56CCCN5[C@H](COc5cc([C@H](C(=O)N7C[C@H](O)C[C@H]7C(=O)N[C@@H](C)c7ccc(-c8scnc8C)cc7)C(C)C)on5)CC6)nc4c3F)c12` [Compound 316, (2S,4R)-1-[(2S)-2-[3-[[(3S,8R)-8-[[4-(3,8-diazabicyclo[3.2.1]octan-3-yl)-7-(8-ethynyl-7-fluoro-1-naphthyl)-8-fluoro-pyrido[4,3-d]pyrimidin-2-yl]oxymethyl]-1,2,3,5,6,7-hexahydropyrrolizin-3-yl]methoxy]isoxazol-5-yl]-3-methyl-butanoyl]-4-hydroxy-N-[(1S)-1-[4-(4-methylthiazol-5-yl)phenyl]ethyl]pyrrolidine-2-carboxamide], the Dmax was 20 to 60% and the DC50 was < 600 nM.

With `CCc1cccc2cc(O)cc(-c3ncc4c(N5CC6CCC(C5)N6)nc(OC[C@@H]5CN(CC6CN(c7cc([C@@H](C(=O)N8C[C@H](O)C[C@H]8C(=O)N[C@@H](C)c8ccc(-c9scnc9C)cc8)C(C)C)on7)C6)CCN5C)nc4c3F)c12` [Compound 164, (2S,4R)-1-[(2S)-2-[3-(3-{[(3S)-3-{[(4-{3,8-diazabicyclo[3.2.1]octan-3-yl}-7-(8-ethyl-3-hydroxynaphthalen-1-yl)-8-fluoropyrido[4,3-d]pyrimidin-2-yl)oxy]methyl}-4-methylpiperazin-1-yl]methyl}azetidin-1-yl)-1,2-oxazol-5-yl]-3-methylbutanoyl]-4-hydroxy-N-[(1S)-1-[4-(4-methyl-1,3-thiazol-5-yl)phenyl]ethyl]pyrrolidine-2-carboxamide] the Dmax was 20 to 60% and the DC50 was > 3000 nM.

In the case of `C#Cc1c(F)ccc2cc(O)cc(-c3ncc4c(N5CC6CCC(C5)N6)nc(OCCN5CCC(F)(CN6CCN(c7cc([C@H](C(=O)N8C[C@H](O)C[C@H]8C(=O)N[C@@H](C)c8ccc(-c9scnc9C)cc8)C(C)C)on7)CC6)CC5)nc4c3F)c12` [Compound 172, (2S,4R)-1-[(2R)-2-(3-{4-[(1-{2-[(4-{3,8-diazabicyclo[3.2.1]octan-3-yl}-7-(8-ethynyl-7-fluoro-3-hydroxynaphthalen-1-yl)-8-fluoropyrido[4,3-d]pyrimidin-2-yl)oxy]ethyl}-4-fluoropiperidin-4-yl)methyl]piperazin-1-yl}-1,2-oxazol-5-yl)-3-methylbutanoyl]-4-hydroxy-N-[(1S)-1-[4-(4-methyl-1,3-thiazol-5-yl)phenyl]ethyl]pyrrolidine-2-carboxamide], the Dmax was 80 to 100% and the DC50 was < 600 nM.

For `Cc1ncsc1-c1ccc([C@H](C)NC(=O)[C@@H]2C[C@@H](O)CN2C(=O)[C@@H](c2cc(N3CCN(C(=O)OC[C@H]4CC[C@@]5(COc6nc(N7CC8CCC(C7)N8)c7cc(Cl)c(-c8cc(O)cc9ccccc89)c(F)c7n6)CCCN45)CC3)no2)C(C)C)cc1` (single isomer, unassigned) [Compound 329], the Dmax was 80 to 100% and the DC50 was < 600 nM.

Compound `CCc1cccc2cc(O)cc(-c3ncc4c(N5CC6CCC(C5)N6)nc(OC[C@]56CCCN5C[C@H](Oc5cc([C@H](C(=O)N7C[C@H](O)C[C@H]7C(=O)N[C@@H](C)c7ccc(-c8scnc8C)cc7)C(C)C)on5)CC6)nc4c3F)c12` [Compound 318, (2S,4R)-1-[(2R)-2-[3-[[(6R,8aR)-8a-[[4-(3,8-diazabicyclo[3.2.1]octan-3-yl)-7-(8-ethyl-3-hydroxy-1-naphthyl)-8-fluoro-pyrido[4,3-d]pyrimidin-2-yl]oxymethyl]-2,3,5,6,7,8-hexahydro-1H-indolizin-6-yl]oxy]isoxazol-5-yl]-3-methyl-butanoyl]-4-hydroxy-N-[(1S)-1-[4-(4-methylthiazol-5-yl)phenyl]ethyl]pyrrolidine-2-carboxamide] has a Dmax of 20 to 60% and a DC50 of 1000 to 3000 nM.

For `CCc1cccc2cc(O)cc(-c3ncc4c(N5CC6CCC(C5)N6)nc(OCCN5CCC(CCOc6cc([C@@H](C(=O)N7C[C@H](O)C[C@H]7C(=O)N[C@@H](C)c7ccc(-c8scnc8C)cc7)C(C)C)on6)CC5)nc4c3F)c12` [Compound 248], the DC50 was > 3000 nM.

`CCc1cccc2cc(O)cc(-c3ncc4c(N5CCCCCC5)nc(OC[C@@H]5CC[C@@H](COC(=O)N6CCN(c7cc([C@H](C(=O)N8C[C@H](O)C[C@H]8C(=O)N[C@@H](C)c8ccc(-c9scnc9C)cc8)C(C)C)on7)CC6)N5C)nc4c3F)c12` [Compound 272, [(2S,5S)-5-[[4-(azepan-1-yl)-7-(8-ethyl-3-hydroxy-1-naphthyl)-8-fluoro-pyrido[4,3-d]pyrimidin-2-yl]oxymethyl]-1-methyl-pyrrolidin-2-yl]methyl 4-[5-[(1R)-1-[(2S,4R)-4-hydroxy-2-[[(1S)-1-[4-(4-methylthiazol-5-yl)phenyl]ethyl]carbamoyl]pyrrolidine-1-carbonyl]-2-methyl-propyl]isoxazol-3-yl]piperazine-1-carboxylate] was tested, and the Dmax was 60 to 80% and the DC50 was < 600 nM.
